Our source for the KD and dissociation constant values is PMC6051913 (2018).

The subject of test [1] is Bc 1–5 (RNA, riboswitch) GAUGUAACUGAAUGAAAUGGUGAAGGACGGGUCCACUUAUAACGAGAAGCGGAGGGACUGGCCCAAUGAAGCUUCAGCAACCAUUCAUUGCGAUGAAAAGGUGCUAAAUCCAGCAAAGGGAACUUUGGCAGAUAAGUUGUUGAGUAGAGUGUGAGCUCCGUAACUAGUUACAUC
Briefly: fluorescence titration. The conditions noted are these: 125 mM KCl, 10 mM MgCl2; 40 mM HEPES pH 7.5, 37 °C, 100 nM RNA, 10 µM DFHBI.

Test [2] concerns Bs 4-4 (RNA, riboswitch) GAUGUAACUGAAUGAAAUGGUGAAGGACGGGUCCACUUGGAAGAUAAGAAGCAAUUCUUAUCAAGAGAAGCAGAGGGACUGGCCCGACGAAGCUUCAGCAACCGGUGUAAUGGCGAUCAGCCAUGACCAAGGUGCUAAAUCCAGCAAGUUGUUGAGUAGAGUGUGAGCUCCGUAACUAGUUACAUC
Briefly: fluorescence titration. As to conditions: 125 mM KCl, 10 mM MgCl2; 40 mM HEPES pH 7.5, 37 °C, 100 nM RNA, 10 µM DFHBI.

For the molecule `C[S+](CC[C@H](N)C(=O)O)C[C@H]1O[C@@H](n2cnc3c(N)ncnc32)[C@H](O)[C@@H]1O` (some centres unmarked), the KD in test [1] is reported as ~ 1.7 µM. In test [2], this molecule returned a dissociation constant of 1.0 µM.
